Key:
[1] = tested on: rats undergoing the forced swimming test (FST); assay: Forced swimming test (FST), immobility time after acute oral treatment; type: in vivo, Sprague–Dawley rats; details: Fluoxetine 20 mg/kg, single oral dose 0.5 h before test (Figure 1A); p < 0.05 vs vehicle
Method: ZQ lyophilized powder or fluoxetine (Eli Lilly, United States) was dissolved with saline. To evaluate dose-dependent effects, ZQ (5, 10, 20 g/kg) or fluoxetine (20 mg/kg) was orally administered as a single dosage 0.5 h before the test. To study the precise relationship between antidepressant effects and pharmacokinetics, ZQ (20 g/kg) was orally administered as a single dose 0.5, 1, 2, or 4 h before the test. Similarly, vehicle rats were orally administered an equal volume of saline using the identical procedure.
The swimming tests were conducted according to a previously described method ([Flores-Burgess et al., 2017]) with minor modifications. In brief, all experiments were operated between 12:00 h and 15:00 h in the light cycle. Each rat was individually put into a vertical glass cylinder with a diameter of 20 cm, water depth of 30 cm and water temperature of 25°C. A 15-min forced swimming test was conducted 24 h before the 5-min test. Each rat was deemed to be immobile when it stopped scrabbling, remained floating stilly in the water and only made necessary struggling to maintain its head over water. The total duration of immobility was recorded during the 5-min test.

[2] = Qualitative LC/MS-MS identification in hippocampus and cortex after oral ZQ extract; type: in vivo, Sprague–Dawley rats; details: acute depressive rats, 0.5 h after oral ZQ extract 20 g/kg
Method: To identify the main active compounds of ZQ in target tissue, six rats subjected to FST were sacrificed under anesthesia 0.5 h after oral administration of ZQ extract (20 g/kg), and then the hippocampal and cortex tissue was separated rapidly from the brain on an ice tray and stored at -80°C. All tissues (∼50.0 mg) were homogenized with 1.5 mL of ice-cold 0.9% saline.
(§1) Sample (200 μL) and 10 μL of mixed IS solution containing sulfamethoxazole (754 ng/mL) and honokiol (274 ng/mL) was added to Eppendorf tubes and extracted with 1 mL acetonitrile. The mixed solution was vortexed for 3 min and centrifuged at 10000 rpm for 10 min at 4°C to acquire the supernatant. The supernatant (800 μL) was moved to a clean Eppendorf tube, and then desiccated under a flow of nitrogen at 40°C. Finally, the residue was redissolved in 100 μL acetonitrile/water (90:10, v/v) with vortex-mixing for 3 min and centrifuged at 13000 rpm for 10 min. A 10 μL aliquot of the sample was injected into the LC/MS/MS system for analysis.

[3] = Stability of the analytes in rat plasma (QC samples); type: in vitro ADME; details: deviation from nominal conc
Method: The stabilities of the 7 analytes in rat plasma was evaluated by assaying six replicates of QC samples at low, middle, and high concentrations in practical experimental conditions: samples post-preparation stored in auto-sampler condition for 12 h, and storage at -80°C for 1 month. The freeze- thaw stability was determined after the experience of three freeze-thaw cycles (from -80°C to room temperature). Samples were identified as stable if the accuracy bias was within 15.0% of the nominal concentration.

[4] = Pharmacokinetic study in plasma of acute depressive rats after oral ZQ extract (LC-MS/MS); type: in vivo, Sprague–Dawley rats; details: oral ZQ extract 20 g/kg; for AUC / AUC(0-t) / Cmax / Tmax / half-life: Sprague-Dawley, rat; for AUC: AUC0-∞; for half-life: male, po, 20 g/kg
Method: as §1
All of the rats were subjected to FST for 24 h before oral administration of the ZQ extract (20 g/kg). Plasma samples (about 0.5 mL) were gathered in a heparinized 1.5 mL Eppendorf tube from the venous plexus of the eye socket at 0.083, 0.25, 0.5, 0.75, 1.0, 1.5, 2.0, 3.0, 4.0, 6.0, 8.0, 12.0, and 24.0 h under anesthesia. Each sample was immediately centrifuged at 10000 rpm for 15 min to acquire the plasma. At last, the plasma was immediately placed at -80°C until measure.
All data were expressed as the mean ± SD. The plasma concentration of the 7 compounds during the experiment was calculated according to the daily calibration curve. The pharmacokinetic parameters, including Cmax (the peak drug plasma concentration), Tmax (the time to Cmax), AUC0-t (the area under the plasma concentration-time curve from 0 to time), AUC0-∞ (the area under the plasma concentration-time curve from 0 to time infinity), and t1/2 (the elimination half-life) were calculated by performing a non-compartment model using WinNonlin Professional Edition Version 2.1 (Pharsight Corporation, Sunnyvale, CA, United States). The immobile time in the FST test was evaluated by one-way ANOVA. Statistical significance was denoted at p < 0.05. Statistical analysis was operated by GraphPad Prism 5 software.

[5] = set-up: method as in Tong et al., 2012; details: oral ZQ 3.2 g/kg, ref Tong et al., 2012; cited from earlier work
[6] = plasma, male SD rats subjected to FST, mean ± SD, n = 6

SMILES | immobility time in the FST [1] | absorption into hippocampus and cortex (qualitative) [2] | RE, -80°C for 1 month ([3]; high QC level) | RE, Room temperature for 12 h ([3]; high QC level) | RE, Three freeze-thaw cycles ([3]; high QC level) | RE, -80°C for 1 month ([3]; low QC level) | RE, Room temperature for 12 h ([3]; low QC level) | RE, Three freeze-thaw cycles ([3]; low QC level) | RE, -80°C for 1 month ([3]; middle QC level) | RE, Room temperature for 12 h ([3]; middle QC level) | RE, Three freeze-thaw cycles ([3]; middle QC level) | AUC [4, 6] | AUC(0-t) [4, 6] | Cmax [4, 6] | Tmax [4, 6] | half-life [4, 6] | AUC0-∞ relative to other flavonoids ([4]; depressive rats) | T1/2 [4, 6] | AUC0-∞ in healthy rats compared with this study [5]
CNCCC(Oc1ccc(C(F)(F)F)cc1)c1ccccc1 (stereo not drawn) [Fluoxetine, fluoxetine] | 116.07 ± 28.65 s | – | – | – | – | – | – | – | – | – | – | – | – | – | – | – | – | – | –
COc1ccc([C@@H]2CC(=O)c3c(O)cc(O[C@@H]4O[C@H](CO[C@@H]5O[C@@H](C)[C@H](O)[C@@H](O)[C@H]5O)[C@@H](O)[C@H](O)[C@H]4O)cc3O2)cc1O [Hesperidin, hesperidin] | – | absorbed into the hippocampus and cortex | 0.02% | 4.88% | -1.62% | 6.36% | -1.88% | 4.08% | 4.15% | 0.91% | 5.80% | 179 ± 43.9 ng·h/mL | 136 ± 23.7 ng·h/mL | 46 ± 7.32 ng/mL | 0.42 ± 0.13 h | 2.93 ± 0.88 h | – | – | –
COc1ccc2ccc(=O)oc2c1CC(O)C(C)(C)O (stereo not drawn) [Meranzin hydrate] | – | absorbed into the hippocampus and cortex | 9.41% | 7.34% | 3.48% | 6.97% | 11.26% | 11.95% | 7.29% | 2.66% | -13.99% | 1710 ± 350 ng·h/mL | 1480 ± 259 ng·h/mL | 222 ± 53.9 ng/mL | 1.25 ± 0.42 h | > 7.3 h | at least fivefold higher | 7.31 ± 1.51 h | –
O=C1C[C@@H](c2ccc(O)cc2)Oc2cc(O)cc(O)c21 [Naringenin, naringenin] | – | absorbed into the hippocampus and cortex | 3.14% | -2.56% | -2.59% | -7.39% | 5.64% | -8.95% | -6.00% | 10.67% | -4.45% | 226 ± 64.9 ng·h/mL | 188 ± 38.9 ng·h/mL | 78.1 ± 22.2 ng/mL | 0.42 ± 0.13 h | 4.37 ± 1.19 h | – | – | higher than the data obtained in our experiment
C[C@@H]1O[C@@H](O[C@H]2[C@H](Oc3cc(O)c4c(c3)O[C@H](c3ccc(O)cc3)CC4=O)O[C@H](CO)[C@@H](O)[C@@H]2O)[C@H](O)[C@H](O)[C@H]1O [Naringin, naringin] | – | absorbed into the hippocampus and cortex | 4.57% | 5.94% | 0.56% | 12.29% | 5.84% | 9.33% | 0.21% | 6.83% | 4.34% | 312 ± 89.5 ng·h/mL | 293 ± 92 ng·h/mL | 104 ± 18.8 ng/mL | 0.42 ± 0.13 h | 1.67 ± 0.57 h | – | – | higher than the data obtained in our experiment
C[C@@H]1O[C@@H](OC[C@H]2O[C@@H](Oc3cc(O)c4c(c3)O[C@H](c3ccc(O)cc3)CC4=O)[C@H](O)[C@@H](O)[C@@H]2O)[C@H](O)[C@H](O)[C@H]1O [Narirutin, narirutin] | – | absorbed into the hippocampus and cortex | 3.03% | 5.53% | 7.94% | 8.49% | 12.43% | 9.69% | 7.57% | 1.84% | 8.89% | 44.9 ± 9.99 ng·h/mL | 42.6 ± 9.64 ng·h/mL | 31.1 ± 8.83 ng/mL | 0.33 ± 0.13 h | 1.49 ± 0.42 h | – | – | –
COc1ccc([C@@H]2CC(=O)c3c(O)cc(O[C@@H]4O[C@H](CO)[C@@H](O)[C@H](O)[C@H]4O[C@@H]4O[C@@H](C)[C@H](O)[C@@H](O)[C@H]4O)cc3O2)cc1O [Neohesperidin, neohesperidin] | – | absorbed into the hippocampus and cortex | 2.03% | 10.82% | -0.30% | 3.31% | -5.80% | 7.23% | 3.13% | 7.28% | 5.88% | 239 ± 95.6 ng·h/mL | 234 ± 87.3 ng·h/mL | 90.8 ± 48.5 ng/mL | 0.29 ± 0.1 h | 2.02 ± 0.77 h | – | – | higher than the data obtained in our experiment
COc1ccc(-c2cc(=O)c3c(OC)c(OC)c(OC)c(OC)c3o2)cc1OC [Nobiletin, nobiletin] | – | absorbed into the hippocampus and cortex | -1.14% | 4.48% | -6.73% | -9.94% | -4.37% | -7.88% | -8.19% | 5.03% | -7.62% | 153 ± 40 ng·h/mL | 151 ± 40.6 ng·h/mL | 53.9 ± 14.3 ng/mL | 0.38 ± 0.14 h | 1.28 ± 0.87 h | – | – | –
